Measured values published in patent US9682148B2, “Solid oral dosage form of testosterone derivative” (Solural Pharma APS, priority 2012, dated 2017).

What was measured:
[1] = cited from earlier work
[2] = Estimate of maximal amount of lymphatic absorbed TU; details: estimated: 25% of solubility x 120 mg/g x 3.5 g triglyceride/10 h, formulation of 600 mg fat
From the text: The maximal amount of lymphatic absorbed TU can be estimated from the solubility of Testosterone Undecanoate in triglyceride and the transported triglyceride (Int. J. Pharm., vol. 34, 175-178, 1986).

CCCCCCCCCCC(=O)O[C@H]1CC[C@H]2[C@@H]3CCC4=CC(=O)CC[C@]4(C)[C@H]3CC[C@]12C [Testosterone Undecanoate]
solubility in triglyceride [1]: 120 mg/g
maximal amount of lymphatic absorbed TU [2]: ~100 mg
